The record followed here is patent US10150760B2, “Compounds for use in preparing heterocyclic triazole agonists of the APJ receptor” (AMGEN INC., priority 2016, dated 2018).

One assay addresses human APJ receptor (Homo sapiens (Human), UniProt P35414). The assay is described as follows: [35S]GTPγS binding assay on membranes from CHO cells stably expressing human APJ receptor. The conditions noted are these: read-out: Activity hAPJ SPA EC50 IP. It counts as biochemical. The gist of the method: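 Membranes from CHO cells stably expressing human APJ incubated with ligand, 0.2 nM [35S]GTPγS and WGA SPA beads in HEPES pH 7.5 with 5 mM MgCl2, 200 mM NaCl, 3 μM GDP, 90 min at RT. Nonspecific binding defined with 100 μM GTPγS; EC50 by non-linear regression.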
On the technique in general: Binding of GTPγS marks nucleotide exchange on a G protein.

Assay [1] relates to isolated perfused rat hearts. The assay is described as follows: Ex vivo isolated perfused rat heart assay (Langendorff apparatus), load independent inotropic and lusitropic effects. As to conditions: ex vivo isolated perfused rat heart, percent change over vehicle; for Isolated Heart Assay dP/dtmax (%): contractility; for Isolated Heart Assay dP/dtmin (%): relaxation. Further details: species or system Sprague Dawley rat. An excerpt:
Evidence for Load Independent Inotropic Effects with APJ Agonists Using Ex Vivo Assay (Isolated Perfused Rat Hearts)
Naive Sprague Dawley® SD rats (Harlan laboratories (Livermore, Calif. USA)) were anaesthetized and hearts were excised followed by cannulation in the Langendorff apparatus (Harvard apparatus, Holliston, Mass. USA) via aorta. The heart was perfused retrograde with modified oxygenated Krebs-Henseleit buffer (Skrzypiec-Spring M et al., (2007) J. Pharmacol Toxicol Methods 55: 113-126). The pressure of the solution causes the aortic valve to shut and the perfusate is then forced into the ostium and the coronary vessels. This allows the heart to beat for several h. A balloon was inserted into the left ventricle (LV) to measure dP/dtmax (derivative of left ventricular pressure) as an index of cardiac contractility. The APJ agonist was perfused constantly in a dose dependent manner into the heart to examine cardiac contractility.
Example 49.0 was infused at different concentrations and load independent contractility was measured by index of LV dP/dtmax and the results are expressed as a percent change over vehicle. […] Example 49.0 was infused at different concentrations and load independent lusitropic effect (relaxation) was measured by index of LV dP/dtmin where results are expressed as percent change over vehicle. […] Example 60.0 was infused at different concentrations and load independent contractility was measured by index of LV dP/dtmax and the results are expressed as a percent change over vehicle. […] Example 60.0 was infused at different concentrations and load independent lusitropic effect (relaxation) was measured by index of LV dP/dtmin where results are expressed as percent change over vehicle.

human APJ receptor, sequence (P35414 whole entry): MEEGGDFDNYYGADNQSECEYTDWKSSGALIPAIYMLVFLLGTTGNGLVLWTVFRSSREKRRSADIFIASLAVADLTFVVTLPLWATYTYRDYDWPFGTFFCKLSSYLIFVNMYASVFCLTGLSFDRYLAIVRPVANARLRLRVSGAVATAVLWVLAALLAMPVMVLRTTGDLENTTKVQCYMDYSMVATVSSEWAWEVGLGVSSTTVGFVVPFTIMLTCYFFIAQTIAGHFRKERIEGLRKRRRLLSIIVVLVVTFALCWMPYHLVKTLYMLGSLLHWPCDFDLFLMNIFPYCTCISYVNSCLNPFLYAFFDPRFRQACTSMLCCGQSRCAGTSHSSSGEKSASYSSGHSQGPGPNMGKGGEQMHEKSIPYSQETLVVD

A word on the EC50: it is the concentration giving half of the maximal effect. In the case of `COc1cccc(OC)c1-n1c(NS(=O)(=O)[C@@H](C)[C@H](OC)c2ncc(Cl)cn2)nnc1[C@H]1OCC[C@H]1C` (single isomer, unassigned) [Example 74.0, (1R,2S)-1-(5-chloropyrimidin-2-yl)-N-(4-(2,6-dimethoxyphenyl)-5-((2R,3S)-3-methyltetrahydrofuran-2-yl)-4H-1,2,4-triazol-3-yl)-1-methoxypropane-2-sulfonamide or (1R,2S)-1-(5-chloropyrimidin-2-yl)-N-(4-(2,6-dimethoxyphenyl)-5-((2S,3R)-3-methyltetrahydrofuran-2-yl)-4H-1,2,4-triazol-3-yl)-1-methoxypropane-2-sulfonamide], the EC50 on human APJ receptor is 120 nM. Besides, in assay [1], the “Isolated Heart Assay dP/dtmax (%)” value was 5.8% and the “Isolated Heart Assay dP/dtmin (%)” value came out at 2.1%.

Turning to `COc1cccc(OC)c1-n1c(NS(=O)(=O)[C@@H](C)[C@H](OC)c2ncc(Cl)cn2)nnc1[C@H]1CC[C@@H](C)O1` (single isomer, unassigned) [Example 77.0, (1R,2S)-1-(5-chloropyrimidin-2-yl)-N-(4-(2,6-dimethoxyphenyl)-5-((2S,5S)-5-methyltetrahydrofuran-2-yl)-4H-1,2,4-triazol-3-yl)-1-methoxy-propane-2-sulfonamide or (1R,2S)-1-(5-chloropyrimidin-2-yl)-N-(4-(2,6-dimethoxyphenyl)-5-((2R,5R)-5-methyltetrahydrofuran-2-yl)-4H-1,2,4-triazol-3-yl)-1-methoxypropane-2-sulfonamide], the EC50 on human APJ receptor is 0.14 nM. In addition, in assay [1], the “Isolated Heart Assay dP/dtmax (%)” value is 5.0% and the “Isolated Heart Assay dP/dtmin (%)” value is “No effect”.

In the case of `COc1cccc(OC)c1-n1c(NS(=O)(=O)[C@@H](C)[C@H](OC)c2ncc(Cl)cn2)nnc1[C@H]1CC[C@@H](C)O1` (single isomer, unassigned) [Example 78.0, (1R,2S)-1-(5-chloropyrimidin-2-yl)-N-(4-(2,6-dimethoxyphenyl)-5-((2S,5S)-5-methyltetrahydrofuran-2-yl)-4H-1,2,4-triazol-3-yl)-1-methoxy-propane-2-sulfonamide or (1R,2S)-1-(5-chloropyrimidin-2-yl)-N-(4-(2,6-dimethoxyphenyl)-5-((2R,5R)-5-methyltetrahydrofuran-2-yl)-4H-1,2,4-triazol-3-yl)-1-methoxypropane-2-sulfonamide], the EC50 on human APJ receptor turned out to be 5 nM. Besides, in assay [1], the “Isolated Heart Assay dP/dtmax (%)” value came out at 7.09% and the “Isolated Heart Assay dP/dtmin (%)” value came out at 8.61%.

On to `COc1ncnc(OC)c1-n1c(NS(=O)(=O)[C@@H](C)[C@H](OC)c2ncc(Cl)cn2)nnc1[C@H]1CCCO1` (single isomer, unassigned) [Example 80.0, (1R,2S)-1-(5-chloropyrimidin-2-yl)-N-(4-(4,6-dimethoxypyrimidin-5-yl)-5-((S)-tetrahydrofuran-2-yl)-4H-1,2,4-triazol-3-yl)-1-methoxypropane-2-sulfonamide or (1R,2S)-1-(5-chloropyrimidin-2-yl)-N-(4-(4,6-dimethoxypyrimidin-5-yl)-5-((R)-tetrahydrofuran-2-yl)-4H-1,2,4-triazol-3-yl)-1-methoxypropane-2-sulfonamide], for which the concentration giving a half-maximal response (EC50) at human APJ receptor came to 9.1 nM. In assay [1], the “Isolated Heart Assay dP/dtmax (%)” value is reported as “No effect” and the “Isolated Heart Assay dP/dtmin (%)” value was “No effect”.

As to `COc1cccc(OC)c1-n1c(NS(=O)(=O)[C@@H](C)[C@@H](OC(C)C)c2ncc(C)cn2)nnc1[C@H]1CCCO1` (single isomer, unassigned) [Example 97.0, (1S,2S)-N-(4-(2,6-dimethoxyphenyl)-5-((S)-tetrahydrofuran-2-yl)-4H-1,2,4-triazol-3-yl)-1-isopropoxy-1-(5-methylpyrimidin-2-yl)propane-2-sulfonamide or (1S,2S)-N-(4-(2,6-dimethoxyphenyl)-5-((R)-tetrahydrofuran-2-yl)-4H-1,2,4-triazol-3-yl)-1-isopropoxy-1-(5-methyl-pyrimidin-2-yl)propane-2-sulfonamide], the EC50 on human APJ receptor came out at 15 nM. Also, in assay [1], the “Isolated Heart Assay dP/dtmax (%)” value is 5.5% and the “Isolated Heart Assay dP/dtmin (%)” value is on record as 2.0%.

On to `COc1ncnc(OC)c1-n1c(NS(=O)(=O)[C@@H](C)[C@H](C)c2ncc(Cl)cn2)nnc1[C@H]1CCCOC1` (single isomer, unassigned) [Example 102.0, (2S,3R)-3-(5-chloropyrimidin-2-yl)-N-(4-(4,6-dimethoxypyrimidin-5-yl)-5-((S)-tetrahydro-2H-pyran-3-yl)-4H-1,2,4-triazol-3-yl)butane-2-sulfonamide or (2S,3R)-3-(5-chloropyrimidin-2-yl)-N-(4-(4,6-dimethoxypyrimidin-5-yl)-5-((R)-tetrahydro-2H-pyran-3-yl)-4H-1,2,4-triazol-3-yl)butane-2-sulfonamide], for which the EC50 at human APJ receptor worked out at 5.2 nM. Further, in assay [1], the “Isolated Heart Assay dP/dtmax (%)” value stood at 2.0% and the “Isolated Heart Assay dP/dtmin (%)” value came to 5.0%.

In the case of `CO[C@H](c1ncc(Cl)cn1)[C@H](C)S(=O)(=O)Nc1nnc([C@H]2CCCCO2)n1C1(C)CC1` (single isomer, unassigned) [Example 112.0, (1R,2S)-1-(5-chloropyrimidin-2-yl)-1-methoxy-N-(4-(1-methylcyclopropyl)-5-((S)-tetrahydro-2H-pyran-2-yl)-4H-1,2,4-triazol-3-yl)propane-2-sulfonamide or (1R,2S)-1-(5-chloropyrimidin-2-yl)-1-methoxy-N-(4-(1-methylcyclopropyl)-5-((R)-tetrahydro-2H-pyran-2-yl)-4H-1,2,4-triazol-3-yl)propane-2-sulfonamide], the EC50 at human APJ receptor is 14 nM. In addition, in assay [1], the “Isolated Heart Assay dP/dtmax (%)” value is recorded as “No effect” and the “Isolated Heart Assay dP/dtmin (%)” value is given as “No effect”.

`COc1ncnc(OC)c1-n1c(NS(=O)(=O)[C@@H](C)[C@H](OC)c2ncc(Cl)cn2)nnc1[C@H]1CCC(C)(C)O1` (single isomer, unassigned) [Example 139.0, (1R,2S)-1-(5-chloropyrimidin-2-yl)-N-(4-(4,6-dimethoxypyrimidin-5-yl)-5-((S)-5,5-dimethyltetrahydrofuran-2-yl)-4H-1,2,4-triazol-3-yl)-1-methoxypropane-2-sulfonamide or (1R,2S)-1-(5-chloropyrimidin-2-yl)-N-(4-(4,6-dimethoxypyrimidin-5-yl)-5-((R)-5,5-dimethyhetrahydrofuran-2-yl)-4H-1,2,4-triazol-3-yl)-1-methoxypropane-2-sulfonamide]: the EC50 at human APJ receptor was 4.8 nM. Further, in assay [1], the “Isolated Heart Assay dP/dtmax (%)” value is 20.9% and the “Isolated Heart Assay dP/dtmin (%)” value was found to be 30.4%.

On to `COc1cccc(OC)c1-n1c(NS(=O)(=O)[C@@H](C)[C@H](O)c2ncc(C)cn2)nnc1[C@H]1CCOC1` (single isomer, unassigned) [Example 140.0, (1R,2S)-N-(4-(2,6-dimethoxyphenyl)-5-((S)-tetrahydrofuran-3-yl)-4H-1,2,4-triazol-3-yl)-1-hydroxy-1-(5-methylpyrimidin-2-yl)propane-2-sulfonamide or (1R,2S)-N-(4-(2,6-dimethoxyphenyl)-5-((R)-tetrahydrofuran-3-yl)-4H-1,2,4-triazol-3-yl)-1-hydroxy-1-(5-methylpyrimidin-2-yl)propane-2-sulfonamide], for which, at human APJ receptor, the EC50 was found to be 90 nM. Moreover, in assay [1], the “Isolated Heart Assay dP/dtmax (%)” value came out at 8.85% and the “Isolated Heart Assay dP/dtmin (%)” value is recorded as 15.4%.

With `COc1ncnc(OC)c1-n1c(NS(=O)(=O)[C@@H](C)[C@H](C)c2ncc(Cl)cn2)nnc1[C@@H]1COCCO1` (single isomer, unassigned) [Example 195.0, (2S,3R)-3-(5-chloropyrimidin-2-yl)-N-(4-(4,6-dimethoxypyrimidin-5-yl)-5-((R)-1,4-dioxan-2-yl)-4H-1,2,4-triazol-3-yl)butane-2-sulfonamide or (2S,3R)-3-(5-chloropyrimidin-2-yl)-N-(4-(4,6-dimethoxypyrimidin-5-yl)-5-((S)-1,4-dioxan-2-yl)-4H-1,2,4-triazol-3-yl)butane-2-sulfonamide], the EC50 at human APJ receptor was found to be 14 nM. Besides, in assay [1], the “Isolated Heart Assay dP/dtmax (%)” value came out at 8.9% and the “Isolated Heart Assay dP/dtmin (%)” value was 15.0%.

For `COc1cccc(OC)c1-n1c(NS(=O)(=O)[C@@H](C)[C@H](C)c2ncc(F)cn2)nnc1[C@@H]1COCCO1` (single isomer, unassigned) [Example 275.0, (2S,3R)-N-(4-(2,6-dimethoxyphenyl)-5-((R)-1,4-dioxan-2-yl)-4H-1,2,4-triazol-3-yl)-3-(5-fluoropyrimidin-2-yl)butane-2-sulfonamide or (2S,3R)-N-(4-(2,6-dimethoxyphenyl)-5-((S)-1,4-dioxan-2-yl)-4H-1,2,4-triazol-3-yl)-3-(5-fluoropyrimidin-2-yl)butane-2-sulfonamide], the EC50 on human APJ receptor was determined as 20 nM. In assay [1], the “Isolated Heart Assay dP/dtmax (%)” value is reported as 7.95% and the “Isolated Heart Assay dP/dtmin (%)” value is reported as 13.5%.
